Experimental data reported in US20080287407A1, “Nitric Oxide Releasing Pyruvate Compounds, Compositions and Methods of Use” (NitroMed, Inc., priority 2003, published 2008).

SMILES	melting point [°C]
CC(=O)C(=O)N[C@H](CO[N+](=O)[O-])c1ccccc1 [Example 4, N-[(1S)-2-(Nitrooxy)-1-phenylethyl]-2-oxopropanamide]	76 to 77
CC(=O)C(=O)N[C@H](CO[N+](=O)[O-])Cc1ccccc1 [Example 5, N-[(1S)-2-(Nitrooxy)-1-benzylethyl]-2-oxopropanamide]	72 to 75
